# System: skin cancer cell line A431
# Assay: In vitro survival assay (MTT) for anti-skin cancer effects
# Format: cell-based
# Conditions: A-431, A431 human epidermoid carcinoma cell line, 48 hours treatment, read-out: IC50 (half inhibition concentration), survival of skin cancer cells
# Experimental: Inhibiting effects of skin cancer cells by cyclohexenone compounds of Antrodia camphorata from example 1 were assessed according to the anticancer-drug screening model of National Cancer Institute (NCI). The compound 4-hydroxy-2,3-dimethoxy-6-methyl-5 -(3,7,11-trimethyl-dodeca-2,6,10-trienyl)-cyclohex-2-enone from example 1 was added into the culture media of skin cancer cell line A431 to determine the survival rates. Survival of cell was analyzed using MTT assay. A431 cell line was a human epidermoid carcinoma cell line.
# MTT assay is commonly used to analyze cell proliferation, survival rate of viable cells and cytotoxicity. MTT (3[4,5-dimethylthiazol-2-yl]-2,5-diphenyltetrazolium bromide) is a yellow dye which can be converted to water-insoluble purple formazan on the reductive cleavage of its tetrazolium ring by the succinate tetrazolium reductase in mitochondria of cells. The amount of formazan produced is used to detect the number of viable cells and calculate the survival rates. […]
# Afterward, 2.5 mg/ml of MTT solution was added to each well and incubated in the dark for 4 hours, followed by the addition of 100 μl of lysis buffer to stop the reaction. The absorbances were measured at 570 nm with an ELISA Reader to determine the survival rates.
smiles,measurement,value
"COC1=C(OC)C(O)C(C/C=C(\C)CC/C=C(\C)CCC=C(C)C)C(C)C1=O (stereo not shown) [formula 2, 4-hydroxy-2,3-dimethoxy-6-methyl-5-(3,7,11-trimethyl-dodeca-2,6,10-trienyl)-cyclohex-2-enone]",IC50,0.18 µg/mL
